Each molecule was assayed against CDK2 (human) (UniProt P24941) (assay: Enzyme Assay).

Structure (SMILES)	IC50
Cc1c(N[C@H]2CC[C@H](N)CC2)nc2ccnn2c1Nc1ccc(OCCCl)cc1	< 100 µM
Cc1ccc(Nc2c(C)c(N[C@H]3CC[C@H](N)CC3)nc3ccnn23)cc1C	< 100 µM
N#Cc1cnn2c(Nc3ccccc3Cl)cc(N[C@H]3CC[C@H](N)CC3)nc12	< 100 µM
Cc1c(N[C@H]2CC[C@H](N)CC2)nc2ccnn2c1Nc1ccc(C(=O)NCc2cccnc2)cc1	< 100 µM
CCc1c(N[C@H]2CC[C@H](N)CC2)nc2ccnn2c1Nc1cccc(I)c1	< 100 µM
Cc1nn2c(Nc3ccc(F)c(Cl)c3)cc(N[C@H]3CC[C@H](N)CC3)nc2c1Br	< 100 µM
Cc1c(N[C@H]2CC[C@H](N)CC2)nc2ccnn2c1Nc1ccc(OC2CCNC2)cc1 (stereo partly specified)	< 100 µM
N[C@H]1CC[C@H](Nc2cc(Nc3ccccc3Cl)n3ncc(I)c3n2)CC1	< 100 µM
CSc1cccc(Nc2c(C)c(N[C@H]3CC[C@H](N)CC3)nc3ccnn23)c1	< 100 µM
Cc1c(N[C@H]2CC[C@H](N)CC2)nc2ccnn2c1Nc1cccc2[nH]ccc12	< 100 µM
Cc1ccc(COc2cccc(Nc3c(C)c(N[C@H]4CC[C@H](N)CC4)nc4ccnn34)c2)cc1	< 100 µM
CCOc1ccc(Nc2c(-c3ccc(OC)cc3)c(N[C@H]3CC[C@H](N)CC3)nc3ccnn23)cc1	< 100 µM
Cc1c(N[C@H]2CC[C@H](N)CC2)nc2ccnn2c1Nc1ccc(-c2cc3ccccc3o2)cc1	< 100 µM
Fc1ccc(Nc2cc(NC3CCCNC3)nc3c(Br)cnn23)cc1Cl (stereo unspecified)	< 100 µM
Cc1c(N[C@H]2CC[C@H](N)CC2)nc2ccnn2c1Nc1ccc(OC(C)C)cc1	< 100 µM
CCOc1ccc(Nc2c(C)c(N[C@H]3CCN(Cc4ccccc4)C3)nc3ccnn23)cc1	< 100 µM
N[C@H]1CC[C@H](Nc2cc(NCc3cccc(Cl)c3)n3ncc(I)c3n2)CC1	< 100 µM
Cc1c(N[C@H]2CC[C@H](N)CC2)nc2ccnn2c1Nc1ccc(F)c(Cl)c1	< 100 µM
CCOc1ccc(Nc2c(C)c(N[C@H]3CC[C@H](N)CC3)nc3c(C4CCCCC4)cnn23)cc1	< 100 µM
Cc1c(N[C@H]2CC[C@H](N)CC2)nc2ccnn2c1Nc1ccc(-c2cccc(CO)c2)cc1	< 100 µM
CCOc1ccc(Nc2c(C)c(N(CC)C3CCCNC3)nc3ccnn23)cc1 (stereo unspecified)	< 100 µM
CCCc1c(N[C@H]2CC[C@H](N)CC2)nc2ccnn2c1Nc1ccc(F)c(Cl)c1	< 100 µM
Cc1c(N[C@H]2CC[C@H](N)CC2)nc2c(C(=O)C(F)(F)F)cnn2c1Nc1ccc(I)cc1	< 100 µM
COCCOc1ccc(Nc2c(C)c(N[C@H]3CC[C@H](N)CC3)nc3ccnn23)cc1	< 100 µM

Structure (SMILES)	IC50
Cc1c(N[C@H]2CC[C@H](N)CC2)nc2ccnn2c1Nc1ccc2ncsc2c1	< 100 µM
Cc1c(N[C@H]2CC[C@H](N)CC2)nc2ccnn2c1Nc1ccc(OCC2CCCCN2)cc1 (stereo partly specified)	< 100 µM
CCOc1ccc(Nc2c(C)c(N[C@H]3CC[C@H](N)CC3)nc3c(C(=O)NCCN(C)C)cnn23)cc1	< 100 µM
Cc1c(N[C@H]2CC[C@H](N)CC2)nc2ccnn2c1Nc1ccc(C(=O)c2ccccc2)cc1	< 100 µM
Cc1c(N[C@H]2CC[C@H](N)CC2)nc2ccnn2c1Nc1cccc(OCc2ccc(Cl)cc2)c1	< 100 µM
Cc1c(N[C@H]2CC[C@H](N)CC2)nc2ccnn2c1Nc1ccc(-c2cccc(N(C)C)c2)cc1	< 100 µM
CCOc1ccc(Nc2c(C)c(NC3CCCNC3)nc3c(C#N)cnn23)cc1 (stereo unspecified)	< 100 µM
CCOc1ccc(Nc2c(C)c(N[C@H]3CC[C@H](N)CC3)nc3c(CC)cnn23)cc1	< 100 µM
N[C@H]1CC[C@H](Nc2cc(Nc3ccc(F)c(Cl)c3)n3ncc(Br)c3n2)CC1	< 100 µM
CCc1c(N[C@H]2CC[C@H](N)CC2)nc2ccnn2c1Nc1cccc(Cl)c1	< 100 µM
CCc1c(N[C@H]2CC[C@H](N)CC2)nc2ccnn2c1Nc1ccc(Br)cc1	< 100 µM
Cc1c(N[C@H]2CC[C@H](N)CC2)nc2ccnn2c1Nc1cccc(OCc2cccc(N)c2)c1	< 100 µM
CCS(=O)(=O)c1ccc(-c2ccc(Nc3c(C)c(N[C@H]4CC[C@H](N)CC4)nc4ccnn34)cc2)cc1	< 100 µM
Cc1c(N[C@H]2CC[C@H](N)CC2)nc2ccnn2c1Nc1ccc(-c2cccc(C#N)c2)cc1	< 100 µM
Cc1c(N[C@H]2CC[C@H](N)CC2)nc2ccnn2c1Nc1ccc(-c2ccccc2C(F)(F)F)cc1	< 100 µM
CCOc1cccc(Nc2c(C)c(N[C@H]3CC[C@H](N)CC3)nc3ccnn23)c1	< 100 µM
Cc1c(N[C@H]2CC[C@H](N)CC2)nc2ccnn2c1Nc1ccc(-c2ccccc2Cl)cc1	< 100 µM
Cc1c(N[C@H]2CC[C@H](N)CC2)nc2ccnn2c1Nc1ccc(N(C)C)cc1	< 100 µM
Cc1c(NC2CCCNC2)nc2ccnn2c1Nc1ccc(I)cc1 (stereo unspecified)	< 100 µM
Cc1c(N[C@H]2CC[C@H](N)CC2)nc2ccnn2c1Nc1ccc(OC2CCOCC2)cc1	< 100 µM
CCc1c(N[C@H]2CC[C@H](N)CC2)nc2ccnn2c1Nc1ccc(OC(F)(F)F)cc1	< 100 µM
Cc1c(N[C@H]2CC[C@H](N)CC2)nc2ccnn2c1Nc1ccc(OCc2ccccc2Cl)cc1	< 100 µM
Cc1c(N[C@H]2CC[C@H](N)CC2)nc2ccnn2c1Nc1ccc(OCCc2ccccn2)cc1	< 100 µM
Cc1c(N[C@H]2CC[C@H](N)CC2)nc2ccnn2c1Nc1ccc(I)cc1	< 100 µM

Other lines, results leading:

IC50	Structure (SMILES)
< 100 µM	Cc1c(N[C@H]2CC[C@H](N)CC2)nc2ccnn2c1Nc1ccc(-c2cccc(N)c2)cc1
< 100 µM	Cc1c(N[C@H]2CC[C@H](N)CC2)nc2ccnn2c1Nc1ccc(OCc2ccccn2)cc1
< 100 µM	CCOc1ccc(Nc2c(OC)c(NC3CCCNC3)nc3ccnn23)cc1 (stereo unspecified)
< 100 µM	Cc1c(N[C@H]2CC[C@H](N)CC2)nc2ccnn2c1Nc1ccc(-c2cccc(O)c2)cc1
< 100 µM	CCCc1c(N[C@H]2CC[C@H](N)CC2)nc2c(Br)cnn2c1Nc1ccc(F)c(Cl)c1
< 100 µM	Cc1c(N[C@H]2CC[C@H](N)CC2)nc2ccnn2c1Nc1cccc(CO)c1
< 100 µM	C=CCNc1c(-c2ccccc2)c(N[C@H]2CC[C@H](N)CC2)nc2ccnn12
< 100 µM	CCc1c(N[C@H]2CC[C@H](N)CC2)nc2ccnn2c1Nc1ccc(N2CCCCC2)cc1
< 100 µM	CCOc1ccc(Nc2c(C)c(N[C@H]3CC[C@H](N)CC3)nc3c(OC)cnn23)cc1
< 100 µM	Cc1c(N[C@H]2CC[C@H](N)CC2)nc2ccnn2c1Nc1ccc(-c2ccsc2)cc1
< 100 µM	CCc1c(NC2CCNCC2)nc2ccnn2c1Nc1ccc(F)c(Cl)c1
< 100 µM	Cc1c(N[C@H]2CC[C@H](N)CC2)nc2ccnn2c1Nc1ccc2c(c1)OCCO2
< 100 µM	CCc1c(N[C@H]2CC[C@H](N)CC2)nc2ccnn2c1Nc1ccccc1
< 100 µM	CSc1cnn2c(Nc3ccc(F)c(Cl)c3)cc(N[C@H]3CC[C@H](N)CC3)nc12
< 100 µM	COc1ccccc1-c1ccc(Nc2c(C)c(N[C@H]3CC[C@H](N)CC3)nc3ccnn23)cc1
< 100 µM	Cc1c(N[C@H]2CC[C@H](N)CC2)nc2ccnn2c1Nc1ccc(OCC2CCCC2)cc1
< 100 µM	Cc1c(N[C@H]2CC[C@H](N)CC2)nc2ccnn2c1Nc1ccccc1Cl
< 100 µM	CC(C)c1c(N[C@H]2CC[C@H](N)CC2)nc2ccnn2c1Nc1ccc(F)c(Cl)c1
< 100 µM	CCOc1ccc(Nc2c(C)c(N[C@H]3CC[C@H](N)CC3)nc3ccnn23)cc1
< 100 µM	Cc1c(N[C@H]2CC[C@H](N)CC2)nc2ccnn2c1Nc1ccc(OCCc2ccncc2)cc1
< 100 µM	Cc1c(N[C@H]2CC[C@H](N)CC2)nc2ccnn2c1Nc1ccc(-c2ccc(CO)cc2)cc1
< 100 µM	Cc1c(N[C@H]2CC[C@H](N)CC2)nc2ccnn2c1Nc1ccc(-n2ccnc2)cc1
< 100 µM	Cc1c(N[C@H]2CC[C@H](N)CC2)nc2ccnn2c1Nc1ccc(OC2CCN(C)CC2)cc1
< 100 µM	CCOc1ccc(-c2ccc(Nc3c(C)c(N[C@H]4CC[C@H](N)CC4)nc4ccnn34)cc2)cc1

IC50	Structure (SMILES)
< 100 µM	COc1ccc(Nc2c(CCCO)c(N[C@H]3CC[C@H](N)CC3)nc3ccnn23)cc1
< 100 µM	CCOC(=O)c1cccc(Nc2c(CC)c(N[C@H]3CC[C@H](N)CC3)nc3ccnn23)c1
< 100 µM	COc1c(NC2CCCNC2)nc2ccnn2c1Nc1ccc(F)c(Cl)c1 (stereo unspecified)
< 100 µM	CCOc1ccc(Nc2c(C)c(N[C@H]3CC[C@H](N)CC3)nc3c(C(=O)Nc4ncc[nH]4)cnn23)cc1
< 100 µM	COc1cccc(Nc2c(C)c(N[C@H]3CC[C@H](N)CC3)nc3ccnn23)c1
< 100 µM	Cc1c(N[C@H]2CC[C@H](N)CC2)nc2ccnn2c1Nc1ccc(CO)cc1
< 100 µM	Cc1c(N[C@H]2CC[C@H](N)CC2)nc2ccnn2c1Nc1ccc(OCc2cccnc2)cc1
< 100 µM	CCc1c(N[C@H]2CC[C@H](N)CC2)nc2ccnn2c1Nc1ccc(OCc2ccccc2)cc1
< 100 µM	Cc1c(N[C@H]2CC[C@H](N)CC2)nc2ccnn2c1Nc1ccc(-c2ccc(N)cc2)cc1
< 100 µM	Cc1c(N[C@H]2CC[C@H](N)CC2)nc2ccnn2c1Nc1ccc(-c2ccc(O)cc2)cc1
< 100 µM	Cc1c(N[C@H]2CC[C@H](N)CC2)nc2ccnn2c1Nc1ccc(N2CCCCC2)cc1
< 100 µM	CCOc1ccc(Nc2c(C)c(N[C@H]3CC[C@H](N)CC3)nc3c(C(C)C)cnn23)cc1
< 100 µM	CCOC(=O)c1ccc(Nc2c(CC)c(N[C@H]3CC[C@H](N)CC3)nc3ccnn23)cc1
< 100 µM	CCOc1ccc(Nc2c(C)c(NC(CO)C(C)C)nc3ccnn23)cc1 (stereo unspecified)
< 100 µM	CCc1c(NC2CCCNC2)nc2ccnn2c1Nc1ccc(Br)cc1 (stereo unspecified)
< 100 µM	CCc1c(N[C@H]2CC[C@H](N)CC2)nc2ccnn2c1Nc1ccc(N2CCCC2=O)cc1
< 100 µM	CCc1c(N[C@H]2CC[C@H](N)CC2)nc2ccnn2c1Nc1ccc(Oc2ccc(C)cc2)cc1
< 100 µM	Cc1c(N[C@H]2CC[C@H](N)CC2)nc2ccnn2c1Nc1ccc(OCC2CCCCC2)cc1
< 100 µM	CCc1c(N[C@H]2CC[C@H](N)CC2)nc2ccnn2c1Nc1ccc(F)c(Cl)c1
< 100 µM	CCOc1ccc(Nc2c(CC)c(N[C@H]3CC[C@H](N)CC3)nc3ccnn23)cc1
< 100 µM	CCOc1ccc(Nc2cc(N[C@H]3CC[C@H](N)CC3)nc3c(I)cnn23)cc1
< 100 µM	Cc1c(N[C@H]2CC[C@H](N)CC2)nc2ccnn2c1Nc1cccc(OCc2cccc(Cl)c2)c1
< 100 µM	CCOc1ccc(Nc2c(C)c(N[C@@H]3CN[C@@H](C(=O)O)C3)nc3ccnn23)cc1
< 100 µM	CCOC(=O)c1ccc(Nc2c(CC)c(N[C@H]3CC[C@H](N)CC3)nc3ccnn23)cc1Cl

— the Kinase Knowledgebase extract (Sharma et al. 2016)
